Measurements taken from patent US20210347823A1, “METHODS OF PHYSICOCHEMICAL-GUIDED PEPTIDE DESIGN AND NOVEL PEPTIDES DERIVED THEREFROM” (Massachusetts Institute of Technology, priority 2018, published 2021).
“Also recorded” adds a separate entry of the source.

Experiments:
[1] = tested on: P. aeruginosa strain PA14; assay: Scarification skin infection mouse model; type: in vivo, female CD-1 mice
Method: FIGS. 8A-8D. In vivo activity of Pol-CP—NH2 and its analogs. FIG. 8A. Schematic of the experimental design. Briefly, the back of mice was shaved and an abrasion was generated to damage the stratum corneum and the upper layer of the epidermis. Subsequently, an aliquot of 50 μL containing 5×10^7 CFU of P. aeruginosa in PBS was inoculated over each defined area. One day after the infection, peptides (4 μmol L^−1) were administered to the infected area. Animals were euthanized and the area of scarified skin was excised two and four days post-infection (FIG. 8B) homogenized using a bead beater for 20 minutes (25 Hz), and serially diluted for CFU quantification (****p<0.0001). FIG. 8C. Mouse body weight measurements throughout the experiment normalized by the body weight of non-infected mice. […] FIG. 8D. Longer experiment (four days) using a higher concentration (64 μmol L^−1) of peptides Pol-CP—NH2 and [Lys]'-Pol-CP—NH2 (****p<0.0001).
Scarification Skin Infection Mouse Model. P. aeruginosa strain PA14 was grown to an optical density at 600 nm (OD600) of 1 in tryptic soy broth (TSB) medium. […] Animals were euthanized and the area of scarified skin was excised two and four days post-infection, homogenized using a bead beater for 20 minutes (25 Hz), and serially diluted for CFU quantification. […] Statistical significance was assessed using a one-way ANOVA.

[2] = tested on: P. aeruginosa strain PA14; assay: MIC assay (broth microdilution) against P. aeruginosa PA14; type: cell-based, Pseudomonas aeruginosa; details: P. aeruginosa PA14, 24 h, 37° C.
From the text: FIGS. 2A-2E. Design, physicochemical features and activity of Pol-CP—NH2 and Ala-scan analogs. FIG. 2A. Theoretical physicochemical properties of interest of the wild type and Ala-scan analogs, where H denotes hydrophobicity, μH is the hydrophobic moment, q represents the net charge and P/N is the ratio of polar/non-polar residues in the sequence. Top to bottom, left to right the sequences correspond to SEQ ID NOs: 1-13. FIG. 2B. Schematic of the in vitro biological activity experimental design. Briefly, 10^4 bacterial cells and serially diluted peptides (0-128 μmol L^−1) were added to a 96-well plate and incubated at 37° C. One day after the exposure, the solution in each well was measured in a microplate reader (600 nm) to check inhibition of bacteria compared to the untreated controls and presented as heat maps of antimicrobial activities (μmol L^−1) against four bacteria strains: E. coli strain BL21, S. aureus strain ATCC12600 and P. aeruginosa strains PA01, and PA14. Assays were performed in triplicates. FIG. 2C. Graph correlating MIC (μmol L^−1) averages vs H and (FIG. 2D) MIC (μmol L^−1) averages vs μH, where dots […] the dashed line show peptides with higher activity compared to the wild type, in which one can observe ranges of optimal activity in determined intervals of H and μH values. FIG. 2E. […]

In the case of “H-ILGTILKLLKSL-NH2 [Peptide 16, ILGTILKLLKSL-NH2]”, the “in vivo anti-infective activity (CFU)” value ([1]; 64 μmol L^−1, four days, listed as [Lys]^7-Pol-CP—NH2) was “nearly sterilized the infection; also recorded: virtually sterilizing abscess infections” and the “in vivo antimicrobial activity (bacterial load, CFU)” value ([1]; single dose of 4 μmol L^−1 one day after infection) was “most active”.
Substance “H-ILGTILGLLKSL-NH2 [WT, ILGTILGLLKSL-NH2, reference compound]” has an MIC [2] of 64.0 µM.
